Reference: patent publication US9896441B2 (Lycera Corporation, priority 2014, dated 2018)

Tests used:
Gal4-RORγ-LBD = target: T1, Gal4-RORγ-LBD (Homo sapiens, UniProt P51449); assay: Gal4-RORγ Luciferase Reporter Assay in HEK-293T Cells; assay type: cell-based; settings: HEK-293 cells, luciferase reporter, with ursolic acid
T1 construct: expressed in transfected cells
T1 sequence (P51449 269-508 limits assumed): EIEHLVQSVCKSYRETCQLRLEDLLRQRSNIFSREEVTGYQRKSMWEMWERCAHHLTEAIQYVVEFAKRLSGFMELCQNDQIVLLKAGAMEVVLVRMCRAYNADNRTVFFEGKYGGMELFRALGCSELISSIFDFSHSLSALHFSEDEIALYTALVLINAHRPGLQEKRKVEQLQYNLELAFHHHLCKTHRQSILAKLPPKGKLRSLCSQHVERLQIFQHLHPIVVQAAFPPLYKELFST
Procedure, shortened: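 Max Response was taken as the upper plateau of a 4-parameter logistic fit of luciferase signal, normalized to 100 for wells without ursolic acid or compound. Transiently Gal4-RORγ-LBD/Gal4-luc transfected HEK-293 cells carrying […] ursolic acid were incubated with test compounds (0.2% DMSO) overnight at 37 °C and read with One-Glo.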

RORγ-LBD = target: T2, RORγ-LBD (Homo sapiens, UniProt P51449); assay: RORγ-Ligand Binding Domain (LBD) TR-FRET Assay; assay type: biochemical; settings: RORγ-LBD TR-FRET
T2 construct: made in house; host or cells: SF9 cells (baculovirus); used as diluted lysate
T2 sequence (P51449 269-508 limits assumed): T1 sequence (P51449 269-508 limits assumed)
Procedure, shortened: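 Compounds, diluted in DMSO and then in assay buffer (1% DMSO final), were combined with His-tagged RORγ-LBD lysate at roughly 3 nM final and a 200 nM biotinylated SRC1 LXXLL peptide. Ursolic acid was included at 2 μM final. Coactivator recruitment was detected by TR-FRET.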

EC50 (Gal4-RORγ-LBD) [nM] | EC50 (RORγ-LBD) [nM] | SMILES
< 500 | < 500 | COC(=O)CC[C@H]1CN(S(=O)(=O)c2cc(C(F)(F)F)cnc2OCCO)c2cc(/C=C/c3c(Cl)cccc3C(F)F)ccc2O1 [Example 89EL, methyl (S,E)-3-(6-(2-chloro-6-(difluoromethyl)styryl)-4-((2-(2-hydroxyethoxy)-5-(trifluoromethyl)pyridin-3-yl)sulfonyl)-3,4-dihydro-2H-benzo[b][1,4]oxazin-2-yl)propanoate]
< 500 | < 500 | O=C(O)CC[C@H]1CN(S(=O)(=O)c2cc(C(F)(F)F)cnc2OCCO)c2cc(/C=C/c3c(Cl)cccc3C(F)F)ccc2O1 [Example 89EM, (S,E)-3-(6-(2-chloro-6-(difluoromethyl)styryl)-4-((2-(2-hydroxyethoxy)-5-(trifluoromethyl)pyridin-3-yl)sulfonyl)-3,4-dihydro-2H-benzo[b][1,4]oxazin-2-yl)propanoic acid]
< 500 | < 500 | O=C(O)CC[C@H]1CN(S(=O)(=O)c2cccc(C(F)F)c2)c2cc(/C=C/c3c(Cl)cccc3C(F)F)ccc2O1 [Example 89EP, (S,E)-3-(6-(2-chloro-6-(difluoromethyl)styryl)-4-((3-(difluoromethyl)phenyl)-sulfonyl)-3,4-dihydro-2H-benzo[b][1,4]oxazin-2-yl)propanoic acid]
< 500 | < 500 | COC(=O)CC[C@H]1CN(S(=O)(=O)c2cccc(C(F)F)c2)c2cc(/C=C/c3c(Cl)cccc3C(F)F)ccc2O1 [Example 89EQ, methyl (S,E)-3-(6-(2-chloro-6-(difluoromethyl)styryl)-4-((3-(difluoromethyl)phenyl)-sulfonyl)-3,4-dihydro-2H-benzo[b][1,4]oxazin-2-yl)propanoate]
< 500 | < 500 | COc1cccc(C(F)(F)F)c1/C=C/c1ccc2c(c1)N(S(=O)(=O)c1cccc(C(F)(F)F)c1)C[C@H](CCC(=O)O)O2 [Example 89ER, (S,E)-3-(6-(2-methoxy-6-(trifluoromethyl)styryl)-4-((3-(trifluoromethyl)phenyl)-sulfonyl)-3,4-dihydro-2H-benzo[b][1,4]oxazin-2-yl)propanoic acid]
500 to 5000 | < 500 | COC(=O)CC[C@H]1CN(S(=O)(=O)c2cccc(C(F)(F)F)c2)c2cc(/C=C/c3c(OC)cccc3C(F)(F)F)ccc2O1 [Example 89ES, methyl (S,E)-3-(6-(2-methoxy-6-(trifluoromethyl)styryl)-4-((3-(trifluoromethyl)phenyl)-sulfonyl)-3,4-dihydro-2H-benzo[b][1,4]oxazin-2-yl)propanoate]
5000 to 10000 | < 500 | CC(F)(F)c1cccc(Cl)c1/C=C/c1ccc2c(c1)N(S(=O)(=O)c1cccc(C(F)(F)F)c1)C[C@H](CCC(=O)O)O2 [Example 89EV, (S,E)-3-(6-(2-chloro-6-(1,1-difluoroethyl)styryl)-4-((3-(trifluoromethyl)phenyl)-sulfonyl)-3,4-dihydro-2H-benzo[b][1,4]oxazin-2-yl)propanoic acid]
500 to 5000 | < 500 | C[C@H]1CN(S(=O)(=O)c2cc(C(F)(F)F)cnc2OCCO)c2cc(/C=C/c3c(Cl)cccc3C(F)(F)F)ccc2O1 [Example 89EX, (S,E)-2-((3-((6-(2-chloro-6-(trifluoromethyl)styryl)-2-methyl-2,3-dihydro-4H-benzo[b][1,4]oxazin-4-yl)sulfonyl)-5-(trifluoromethyl)-pyridin-2-yl)oxy)ethan-1-ol]
500 to 5000 | < 500 | COc1cccc(Cl)c1/C=C/c1ccc2c(c1)N(S(=O)(=O)c1cccc(C(F)(F)F)c1)C[C@H](CCC(=O)O)O2 [Example 89EY, (S,E)-3-(6-(2-chloro-6-methoxystyryl)-4-((3-(trifluoromethyl)phenyl)-sulfonyl)-3,4-dihydro-2H-benzo[b][1,4]oxazin-2-yl)propanoic acid]
< 500 | < 500 | CCOc1ncc(C(F)(F)F)cc1S(=O)(=O)N1C[C@H](CCC(=O)O)Oc2ccc(/C=C/c3c(Cl)cccc3OC)cc21 [Example 89FA, (S,E)-3-(6-(2-chloro-6-methoxystyryl)-4-((2-ethoxy-5-(trifluoromethyl)pyridin-3-yl)sulfonyl)-3,4-dihydro-2H-benzo[b][1,4]oxazin-2-yl)propanoic acid]
500 to 5000 | < 500 | O=C(O)CC[C@H]1CN(S(=O)(=O)c2cc(C(F)(F)F)cnc2OCCCO)c2cc(/C=C/c3c(F)cccc3Cl)ccc2O1 [Example 89FC, (S,E)-3-(6-(2-chloro-6-fluorostyryl)-4-((2-(3-hydroxypropoxy)-5-(trifluoromethyl)pyridin-3-yl)sulfonyl)-3,4-dihydro-2H-benzo[b][1,4]-oxazin-2-yl)propanoic acid]
500 to 5000 | < 500 | COC(=O)CC[C@H]1CN(S(=O)(=O)c2cc(C(F)(F)F)cnc2OCCCO)c2cc(/C=C/c3c(F)cccc3Cl)ccc2O1 [Example 89FD, methyl (S,E)-3-(6-(2-chloro-6-fluorostyryl)-4-((2-(3-hydroxypropoxy)-5-(trifluoromethyl)pyridin-3-yl)sulfonyl)-3,4-dihydro-2H-benzo[b][1,4]-oxazin-2-yl)propanoate]

The next lines start with the molecule.

SMILES | EC50 (Gal4-RORγ-LBD) [nM] | EC50 (RORγ-LBD) [nM]
CCOc1ncc(C(F)(F)F)cc1S(=O)(=O)N1C[C@H](CCC(=O)OC)Oc2ccc(/C=C/c3c(Cl)cccc3C(F)F)cc21 [Example 89EK, methyl (S,E)-3-(6-(2-chloro-6-(difluoromethyl)styryl)-4-((2-ethoxy-5-(trifluoromethyl)-pyridin-3-yl)sulfonyl)-3,4-dihydro-2H-benzo[b][1,4]-oxazin-2-yl)propanoate] | 500 to 5000 | < 500
O=C(O)CC[C@H]1CN(S(=O)(=O)c2cccc(C(F)(F)F)c2)c2cc(/C=C/c3c(Cl)cccc3C(F)F)ccc2O1 [Example 89EN, (S,E)-3-(6-(2-chloro-6-(difluoromethyl)styryl)-4-((3-(trifluoromethyl)phenyl)sulfonyl)-3,4-dihydro-2H-benzo[b][1,4]oxazin-2-yl)propanoic acid] | < 500 | < 500
CCOc1ncc(C(F)(F)F)cc1S(=O)(=O)N1C[C@H](CCC(=O)O)Oc2ccc(/C=C/c3c(OC)cccc3C(F)(F)F)cc21 [Example 89ET, (S,E)-3-(4-((2-ethoxy-5-(trifluoromethyl)pyridin-3-yl)sulfonyl)-6-(2-methoxy-6-(trifluoromethyl)styryl)-3,4-dihydro-2H-benzo[b][1,4]-oxazin-2-yl)propanoic acid] | < 500 | < 500
CCOc1ncc(C(F)(F)F)cc1S(=O)(=O)N1C[C@H](CCC(=O)OC)Oc2ccc(/C=C/c3c(OC)cccc3C(F)(F)F)cc21 [Example 89EU, methyl (S,E)-3-(4-((2-ethoxy-5-(trifluoromethyl)pyridin-3-yl)sulfonyl)-6-(2-methoxy-6-(trifluoromethyl)styryl)-3,4-dihydro-2H-benzo[b][1,4]-oxazin-2-yl)propanoate] | 500 to 5000 | < 500
COC(=O)CC[C@H]1CN(S(=O)(=O)c2cccc(C(F)(F)F)c2)c2cc(/C=C/c3c(Cl)cccc3C(C)(F)F)ccc2O1 [Example 89EW, methyl (S,E)-3-(6-(2-chloro-6-(1,1-difluoroethyl)styryl)-4-((3-(trifluoromethyl)phenyl)-sulfonyl)-3,4-dihydro-2H-benzo[b][1,4]oxazin-2-yl)propanoate] | < 500 | < 500
COC(=O)CC[C@H]1CN(S(=O)(=O)c2cccc(C(F)(F)F)c2)c2cc(/C=C/c3c(Cl)cccc3OC)ccc2O1 [Example 89EZ, methyl (S,E)-3-(6-(2-chloro-6-methoxystyryl)-4-((3-(trifluoromethyl)phenyl)-sulfonyl)-3,4-dihydro-2H-benzo[b][1,4]oxazin-2-yl)propanoate] | < 500 | < 500
CCOc1ncc(C(F)(F)F)cc1S(=O)(=O)N1C[C@H](CCC(=O)OC)Oc2ccc(/C=C/c3c(Cl)cccc3OC)cc21 [Example 89FB, methyl (S,E)-3-(6-(2-chloro-6-methoxystyryl)-4-((2-ethoxy-5-(trifluoromethyl)pyridin-3-yl)sulfonyl)-3,4-dihydro-2H-benzo[b][1,4]oxazin-2-yl)propanoate] | 500 to 5000 | < 500
CCOc1nn(CC)cc1S(=O)(=O)N1C[C@H](CCC(=O)O)Oc2ccc(/C=C/c3c(Cl)cccc3C(C)(F)F)cc21 [Example 89FE, (S,E)-3-(6-(2-chloro-6-(1,1-difluoroethyl)styryl)-4-((3-ethoxy-1-ethyl-1H-pyrazol-4-yl)sulfonyl)-3,4-dihydro-2H-benzo[b][1,4]oxazin-2-yl)propanoic acid] | < 500 | < 500
CCOc1nn(CC)cc1S(=O)(=O)N1C[C@H](CCC(=O)OC)Oc2ccc(/C=C/c3c(Cl)cccc3C(C)(F)F)cc21 [Example 89FF, methyl (S,E)-3-(6-(2-chloro-6-(1,1-difluoroethyl)styryl)-4-((3-ethoxy-1-ethyl-1H-pyrazol-4-yl)sulfonyl)-3,4-dihydro-2H-benzo[b][1,4]oxazin-2-yl)propanoate] | 500 to 5000 | < 500
